The values below come from patent publication US8334238B2, “Multiparameter FACS assays to detect alterations in cellular parameters and to screen small molecule libraries” (Rigel, Inc., priority 1998, dated 2012).

The test system of series [1] is MC-9 cells. Briefly: Propidium iodide staining (plasma membrane integrity) by FACS. In kind it is cell-based. To be noted: 2 μm vs DMSO. As to the method:
(§1) Experiments were carried out in modified tyrodes buffer (MD which consisted of NaCl (137 mM), KCl (2.7 mM), CaCl2 (1.8 mM), MgCl2 (1 mM), Glucose (5.6 mM), Hepes (20 mM, pH 7.4), and bovine serum albumin (0.1%). MC-9 cells were spun at 400×g and the media was aspirated. The cells were then washed with MT, respun/aspirated and taken up in MT at a density of 5×10^6 cells/ml. Cells were then treated with either DMSO or ionophore for 30 minutes (or the time was varied if a timecourse). The cells were then pelleted with the supernatant collected for enzymatic analysis; in some cases, the cells then processed for flow cytometry. All stimulations were carried out at 37° C. Stimulations of RBL-2H3 cells were carried out by washing the adherent cells one time in MT and then adding warmed MT (1 ml/10^6 cells) containing the stimulus. The cells were incubated at 37° C. for 30 minutes and the supernatant was harvested for further analysis. In some of the examples, (Examples 4-6), the plate bound cells were stained for annexin and then removed from the flask using No-Zyme (Collaborative Research, Inc.) for further processing for flow cytometry. For stimulation of RBL-2H3 cells with antigen crosslinking the cells were incubated overnight with IgE anti-DNP (Sigma Chemical Co.) in complete media at a concentration of 50 ng/ml. […]
A general note: Flow cytometry measures light scatter and fluorescence of single cells or particles in a stream.

In series [2] the test system is MC-9 cells. Description: Annexin-V staining exocytosis assay by FACS. It is filed as cell-based. As to the method:
(§2) Experiments were carried out in modified tyrodes buffer (MD which consisted of NaCl (137 mM), KCl (2.7 mM), CaCl2 (1.8 mM), MgCl2 (1 mM), Glucose (5.6 mM), Hepes (20 mM, pH 7.4), and bovine serum albumin (0.1%). MC-9 cells were spun at 400×g and the media was aspirated. The cells were then washed with MT, respun/aspirated and taken up in MT at a density of 5×10^6 cells/ml. Cells were then treated with either DMSO or ionophore for 30 minutes (or the time was varied if a timecourse). The cells were then pelleted with the supernatant collected for enzymatic analysis; in some cases, the cells then processed for flow cytometry. All stimulations were carried out at 37° C. Stimulations of RBL-2H3 cells were carried out by washing the adherent cells one time in MT and then adding warmed MT (1 ml/10^6 cells) containing the stimulus. The cells were incubated at 37° C. for 30 minutes and the supernatant was harvested for further analysis. In some of the examples, (Examples 4-6), the plate bound cells were stained for annexin and then removed from the flask using No-Zyme (Collaborative Research, Inc.) for further processing for flow cytometry. For stimulation of RBL-2H3 cells with antigen crosslinking the cells were incubated overnight with IgE anti-DNP (Sigma Chemical Co.) in complete media at a concentration of 50 ng/ml. The following day they were washed one time in MT and stimulated as described above with the exception that bovine serum albumin coupled to DNP was used as the stimulus at 100 ng/ml.
Cells post exocytic stimulus were stained with annexin-PITC at a dilution of 1/100 in MT for 10 minutes at room temperature. The cells were then washed one time in MT, taken up in MT and viewed in the flow cytometer or microscope. For indirect labeling, annexin-biotin was added to the MT during the stimulation procedure at a dilution of 1/200. The cells were then pelleted in ice cold MT, spun, aspirated, and taken up in ice cold MT with streptavidin-APC at a dilution of 1/200 and kept on ice for 15 minutes. […]

In series [3] the test system is MC-9 cells. Description: Population based exocytic enzyme activity assay on cell supernatant. The conditions noted are these: 2 μm, 30 minutes, vs DMSO. On the procedure:
as §1, with “analysis.” for “analysis. In some of the examples, (Examples 4-6), the plate bound cells were stained for annexin and then removed from the flask using No-Zyme (Collaborative Research, Inc.) for further processing for flow cytometry. For stimulation of RBL-2H3 cells with antigen crosslinking the cells were incubated overnight with IgE anti-DNP (Sigma Chemical Co.) in complete media at a concentration of 50 ng/ml.”
(§3) Enzyme assays were carried out on cell supernatants and pellets following exocytic stimulation. […] The plate was read on a fluorescence plate reader (Wallac, Inc.) using excitation 380 nm/emission 440 nm filters every 3 minutes for five times to obtain an enzymatic rate; analyses were carried out in triplicate.

Series [4] has as its system MC-9 cells. Description: Lysotracker green release from granules by FACS. In kind it is cell-based. As to the method:
Lysotracker dyes (blue, green, and red) were loaded into cells by diluting them to a final concentration of 1 μM in complete media and incubating the cells for 60 minutes at 37° C. in their presence. After loading, the cells were washed two times in MT and then were ready for further analysis or stimulation. Further methodologies are described in the preceding examples.

Series [5] deals with MC-9 cells. Briefly: Styryl dye (FM 1-43 / FM 4-64) uptake exocytosis assay by FACS. In kind it is cell-based. To be noted: 2 μM vs DMSO. As to the method: as §1, with “cytometry.” for “cytometry. For stimulation of RBL-2H3 cells with antigen crosslinking the cells were incubated overnight with IgE anti-DNP (Sigma Chemical Co.) in complete media at a concentration of 50 ng/ml.”
The cells were prepared as described above. […] The cells were then ready for analysis in the flow cytometer (see Example 2).

The subject of series [6] is MC-9 cells. Description: Exocytic light scatter changes on the flow cytometer. It is filed as cell-based. As to the method:
as §2
(§4) Cells processed for stimulation and staining were taken up in MT on ice and filtered through a 100 μm filter prior to cytometry. Cells were analyzed using a FACSCAN (Becton Dickinson Inc., laser line […]) or a Mo-Flo (Cytomation, Inc., laser lines 350 nM broadband (UV), 488 nm, and 647 nm) Cytometer. Cells were sorted, if desired using the Mo-Flo.
(§5) The cells were prepared as described in Example 2, and light scatter properties were determined.

For series [7], the system named is MC-9 cells. Description: In situ enzymology (ELF-97 glucuronide, cell surface glucuronidase) by FACS. In kind it is cell-based. The conditions noted are these: 0.5 μg/ml vs DMSO. As to the method:
MC-9 cells were stimulated for exocytosis as described above and then incubated in enyme substrate buffer (BSA free MT, pH 4.3-7.4 range) containing the substrate ELF-97 Glucuronide (250 NM) for 15 minutes at 37° C. The cells were washed one time in MT and then viewed in the microscope or on the flowcytometer. Further methodologies are described in the preceding examples.

The test system of series [8] is RBL-2H3 cells. Briefly: Exocytic light scatter changes on the flow cytometer. In kind it is cell-based. To be noted: 0.5 ug/ml, 0 and 10 minutes. As to the method:
as §2, §4, §5

Series [9] relates to RBL-2H3 cells. Briefly: Annexin-V-FITC staining of exocytic granules, antigen crosslinking, microscopy. In kind it is cell-based. The conditions noted are these: IgE-sensitized RBL-2H3 cells, 100 ng/ml vs MT buffer only. On the procedure: as §1, with “cytometry.” for “cytometry. For stimulation of RBL-2H3 cells with antigen crosslinking the cells were incubated overnight with IgE anti-DNP (Sigma Chemical Co.) in complete media at a concentration of 50 ng/ml.”
Cells post stimulation or staining were mounted onto glass slides and coverslipped; these were directly visualized by brighffield and fluorescence microscopy on an inverted microscope (TE300, Nikon) using standard BFP, FITC, or TRITC filter sets. […]

The test system of series [10] is RBL-2H3 cells. Briefly: Population based exocytic enzyme activity assay on cell supernatant, antigen crosslinking. To be noted: RBL-2H3 sensitized 16 hours with varying IgE anti-DNP, stimulated with increasing BSA-DNP. As to the method:
as §1, with “analysis.” for “analysis. In some of the examples, (Examples 4-6), the plate bound cells were stained for annexin and then removed from the flask using No-Zyme (Collaborative Research, Inc.) for further processing for flow cytometry. For stimulation of RBL-2H3 cells with antigen crosslinking the cells were incubated overnight with IgE anti-DNP (Sigma Chemical Co.) in complete media at a concentration of 50 ng/ml.”
as §3

Setting [11] is: MC-9 cells, 0, 1, 2, 3 μM, four-parameter analysis.

With `C[C@H](CCC(=O)O)C[C@H](C)C[C@H](C)C(=O)/C=C(\O)[C@H](C)C[C@H](C)C/C=C/[C@@H](C)[C@@H](O)[C@@H](C)[C@@H](O)C[C@@H]1CC[C@@](C)([C@H]2CC[C@@](C)([C@@H](C)O)O2)O1` [ionomycin], in the series with MC-9 cells [1], the PI staining entry was “no significant increase”. Also, the annexin-V-APC signal result in the series on MC-9 cells [2] (setting [11]) is given as “becomes greater”; in the series on MC-9 cells [2] (MC-9 cells, 2 μM vs DMSO, four-parameter analysis with FM 1-43, data not shown) it was “stimulation dependent increases in both signals”. In the series on MC-9 cells [2] (MC-9 cells, 2 μm vs DMSO), the annexin-V-FITC binding entry is “significant increase”. The “glucuronidase or hexosaminidase activity in the supernatant” value in the series on MC-9 cells [3] is listed as “Stimulated release of granule enzymatic activity is evident”. Further, in the series with MC-9 cells [4] (MC-9 cells loaded 1 hour, 2 μM vs DMSO), the “Lysotracker green fluorescence intensity, channel 1” value was “significant loss of signal”. The Lysotracker green signal result in the series with MC-9 cells [4] (setting [11]) is listed as “decreases”. Also, the “styryl dye fluorescence intensity (FM 4-64 and FM 1-43)” value in the series on MC-9 cells [5] (channels 1 and 3) is given as “clear stimulation dependent increase”. In the series with MC-9 cells [5] (four-parameter analysis, data not shown), the “FM 1-43 signal” value is listed as “stimulation dependent increases in both signals”. In the series on MC-9 cells [6] (setting [11]), the forward scatter result was “increases”. In the series with MC-9 cells [6] (setting [11]), the side scatter entry is recorded as “decreases”. Also, the “forward and side scatter” value in the series with MC-9 cells [6] (MC-9 cells, 2 μM vs DMSO, 30 minute timepoint, data not shown) is “stimulation dependent changes in both parameters”.

Take `CNc1ccc2oc(C[C@H]3O[C@@]4(CC[C@H]3C)O[C@H]([C@H](C)C(=O)c3ccc[nH]3)[C@H](C)C[C@H]4C)nc2c1C(=O)O` [A23187]: the “ELF-97 signal (cell surface enzymatic precipitate, in situ glucuronidase activity)” value in the series with MC-9 cells [7] was “significant increase in signal”. Further, the “light scatter changes (side scatter vs. forward scatter)” value in the series with MC-9 cells [6] (MC-9 cells, 0.5 ug/ml, 0, 5 and 30 minutes) is “Time dependent scatter changes are evident”; with RBL-2H3 cells [8], “Time dependent scatter changes are evident”.

As for “BSA-DNP: bovine serum albumin coupled to DNP, antigen used as the stimulus”, the “annexin-V-FITC staining of cell surface granules” value with RBL-2H3 cells [9] is recorded as “Numerous cell surface granules are stained”. For the same compound, the supernatant hexosaminidase activity entry in the series with RBL-2H3 cells [10] is given as “dose response”.
